From US20260125428A1, “SYNTHETIC TRIPLEX PEPTIDE NUCLEIC ACID-BASED INHIBITORS FOR CANCER THERAPY” (University of Connecticut, priority 2022, published 2026)

What was measured:
[1] = test system: U2932 cells; assay: Cell viability (trypan blue) of U2932 cells; format: cell-based; conditions: 24 h, different doses
Experimental: (§1) FIGS. 4A-F show effect of cellular uptake of indicated PNAs. (4A) Expression levels of C-Myc oncogene in U2932 (DLBCL), Raji and Daudi cells (Burkitt's lymphoma) in comparison to the peripheral blood mononuclear cells (PBMC). (4B) Cell viability of U2932 cells after 24 h treatment with indicated PNAs at different doses. (4C) Cell viability of Raji cells after 24 h treatment with indicated PNAs at different doses. (4D) Gene expression levels of C-Myc oncogene and its downstream targets including MCL1 and EZH2 in U2932 cells after 24 h of treatment with γPNA1-NLS, γPNA2-NLS, and ScrγPNA4-NLS at 8 μM. (4E) Gene expression levels of C-Myc oncogene and its downstream targets including BCL2 and EZH2 in Raji cells after 24 h of treatment with γPNA1-NLS, γPNA2-NLS, and ScrγPNA4-NLS at 8 μM. (4F) Gene expression levels of C-Myc in U2932 cells after 24 h treatment with γPNA2-NLS and ScrγPNA4-NLS at indicated doses.

[2] = test system: U2932 derived xenografts; assay: Tumor growth and survival study in U2932 derived xenograft mice; format: in vivo; conditions: 5 mg/kg systemic on day 1, 4, 7, and 10; for survival of the mice: saline 21 days
Experimental: FIGS. 7A-C show survival data of mice after systemic administration of indicated PNAs. (7A) Graph representing the tumor volume of U2932 xenografts after systemic treatment with indicated PNAs (n≥4 mice per group). PNAs were administered systemically on day 1, 4, 7, and 10 (n≥4 mice per group). (7B) The survival of U2932 derived xenograft mice after treatment with γPNA2-NLS, γPNA3, and ScrγPNA4-NLS at 5 mg/kg dose in comparison to the control (saline) mice. (7C) Complete blood count analysis of mice from different groups at the end of the study. RBC: red blood cells; WBC: white blood cells; HGB: hemoglobin; PLT: platelets; HCT: hematocrit; MCH: […]. (D) Blood chemistry analysis of mice from different groups at the end of the study. ALT: alanine transaminase; AST: aspartate transaminase; BUN: blood urea nitrogen; LDH: Lactate dehydrogenase. Results are presented as mean±SEM (n≥4).
In vivo studies in xenograft mice model: U2932 derived xenografts were generated by implanting 10 million cells subcutaneously on the lower right flank of the female NSG mice (NOD.Cg-Prkdc^scidIl2rg^tm1Wj1/SzJ, #005557, Jackson Laboratories, USA) of 5-6 weeks. The mice were maintained in the animal care facility at the University of Connecticut following the required Institutional Animal Care and Use Committee guidelines (IACUC). Mice developed palpable tumors after 3-4 weeks of implantation. Tumor dimensions including length (l), breadth (b), and height (h) were measured using a caliper and volume was calculated using the formula for ellipsoid (0.5236×lbh).
Survival study: Mice bearing tumors about 100-150 mm^3 were divided into 4 groups. Mice were treated with either γPNA2-NLS, γPNA3, Scr-γPNA4-NLS, or saline. PNAs were administered at 5 mg/kg dose on day 1, 4, 7, and 10. The change in tumor volume was measured every day. Mice were euthanized when the tumor volume reached 2000 mm^3. Blood was collected via cardiac punter in 1.5 ml tubes containing 0.5 M EDTA. Organs including tumor, liver, kidney, spleen, heart and lung were collected. Tumor fraction and all organs were kept in 10% formalin and submitted for histology. The complete blood count analysis was performed on the collected blood samples using Sysmex CBC analyzer. Plasma was separated from the blood samples and submitted to Antech diagnostic for blood chemistry analysis to quantify the levels of alanine transaminase, lactate dehydrogenase, aspartate transaminase and blood urea nitrogen.

[3] = test system: C-Myc oncogene; assay: Gene expression (RT-PCR) of C-Myc and downstream targets in U2932 cells; format: cell-based, human; conditions: 24 h
Experimental: as §1
(§2) Gene expression: The levels of mRNA were measured in different cell lines using real time-polymerase chain reaction (RT-PCR). Both untreated (PBMC, U2932, Raji, Daudi) and PNA treated lymphoma cells were collected at the end of treatment. Total RNA was extracted using Qiagen RNeasy® kit (USA) and concentration was measured by Nanodrop™. cDNA was synthesized using high capacity cDNA reverse transcription kit (Applied Biosystem, USA) following the recommended cycling conditions. Taqman® gene expression assay for C-Myc, EZH2, BCL2, MCL1 and GAPDH were used to amplify the respective mRNAs using the specified cycling conditions in the CFX Real-Time PCR detection system. GAPDH was used as the reference gene and fold change in mRNA expression was obtained by normalizing against the untreated cells or cells treated with HDAC inhibitors.

[4] = test system: Raji cells; assay: Cell viability (trypan blue) of Raji cells; format: cell-based; conditions: 24 h, different doses
Experimental: as §1

[5] = test system: C-Myc oncogene; assay: Gene expression (RT-PCR) of C-Myc and downstream targets in Raji cells; format: cell-based, human; conditions: 24 h, 8 μM
Experimental: as §1, §2

[6] = test system: U2932 cells; assay: Viability of U2932 cells, combination of PNAs with HDAC inhibitors and other drugs
Experimental: FIGS. 9A-D show cell viability after treatment with indicated PNAs. (9A) The viability of U2932 cells after treatment with γPNA1-NLS (8 μM), romidepsin (10 nM) and combination of γPNA1-NLS with romidepsin over 96 hours. (9B) The viability of U2932 cells after treatment with γPNA2-NLS (8 μM), romidepsin (10 nM) and combination of γPNA2-NLS with romidepsin over 96 hours. (9C) Fold change in C-Myc levels after combination of γPNA1-NLS and γPNA2-NLS with romidepsin in comparison to only romidepsin treatment. (9D) Fold change in BCL2 levels after combination of γPNA1-NLS and γPNA2-NLS with romidepsin in comparison to only romidepsin treatment.
FIGS. 10A-F show the viability of U2932 cells after indicated treatment. (10A) Viability of U2932 cells after treatment with γPNA2-NLS […], vorinostat (2.5 μM) and combination of γPNA2-NLS with vorinostat over 96 hours. (10B) The viability of U2932 cells after treatment with γPNA2-NLS (8 μM), valproic acid (2 mM) and combination of γPNA2-NLS with valproic acid over 96 hours. […] (10E) The viability of U2932 cells after treatment with CHOP (cyclophosphamide, vincristine, doxorubicin, prednisone) and combination of γPNA2-NLS with CHOP at different doses.
Cell viability: U2932 and Raji cells were seeded in 96 well plates at 20,000 cells/well. PNAs were added to the media at different concentrations (1, 2, 4, and 8 μM). […] The cell viability was then measured via trypan blue staining on day 1, 2, and 4.

[7] = test system: C-Myc oncogene; assay: Gene expression (RT-PCR) in U2932 cells after combination treatment; format: cell-based, human
Experimental: as §2

Substance: X5CCTCCCTTCTTCCTTCTCCCTTGX2 (gamma PNA; NLS peptide; scramble gammaPNA; misc_feature 1 TJJJJJJTJ-linker- is covalently linked to the backbone, wherein J is pseudoisocytosine and the linker is 11-Amino-3,6,9-Trioxaundecanoic Acid (DCHA), represented as -OOO-; misc_feature 23 -K-linker-SEQ ID NO: 5 is covalently linked to the backbone, wherein the linker is 11-Amino-3,6,9-Trioxaundecanoic Acid (DCHA), represented as -OOO-; modified_base 1..23 OTHER; p) [ScrγPNA4-NLS, reference compound]
- viability of U2932 cells [1]: no impact on the viability
- survival of the mice [2]: 19.5 days
- knockdown of C-Myc at different doses (in words) ([3]; different doses): no activity
- levels of downstream targets MCL1 and EZH2 ([3]; RT-PCR, 8 μM): no change in their levels
- viability of Raji cells [4]: no impact on the viability
- levels of downstream targets BCL2 and EZH2 [5]: no change in their levels

Substance: JJJTJJJT-OOO-TCCCTCCCTCCGTTCTTTTTCCC-K-OOO-VKRKKKP (gamma PNA tail clamp; linkers; NLS peptide; gammaPNA to target C-Myc Exon 1; misc_feature 1 JJJTJJJT-linker- is covalently linked to the backbone, wherein J is pseudoisocytosine and the linker is 11-Amino-3,6,9-Trioxaundecanoic Acid (DCHA), represented as -OOO-; misc_feature 23 -K-linker-SEQ ID NO: 5 is covalently linked to the backbone, wherein the linker is 11-Amino-3,6,9-Trioxaundecanoic Acid (DCHA), represented as -OOO-; modified_base 1) [γPNA2-NLS]
- viability, combination with venetoclax ([6]; U2932 cells, over time): significant reduction in viability
- combination effect with romidepsin on viability (in words) ([6]; U2932 cells, romidepsin 10 nM, PNA 8 uM): synergistic activity
- viability, combination with CHOP ([6]; U2932 cells, trypan blue, 24 h and 48 h): significant reduction in viability
- viability, combination with valproic acid in comparison to the individual treatments ([6]; U2932 cells, valproic acid 2 mM, PNA 8 μM, over 96 hours): significant decrease in viability
- combination effect with vorinostat on viability ([6]; U2932 cells, vorinostat 2.5 μM, over 96 hours): synergistic activity
- decrease in U2932 cell viability, combination with romidepsin ([6]; romidepsin 10 nM pretreatment 24 h, PNA 8 uM, day 4): approximately 80%
- viability of U2932 cells [1]: significant decrease in the viability
- efficacy on tumor growth in comparison to γPNA3 [2]: superior efficacy
- tumor growth in comparison to the control groups [2]: significantly reduced tumor growth
- survival of the mice [2]: 29 days
- dose of maximum knockdown of C-Myc ([3]; different doses): 8 µM
- decrease in the levels of C-Myc ([3]; RT-PCR, 8 μM): > 50%
- levels of downstream targets MCL1 and EZH2 ([3]; RT-PCR, 8 μM): significant decrease in the levels of MCL1 and EZH2
- viability of Raji cells [4]: significant decrease in the viability
- knockdown of c-myc, combination with valproic acid ([7]; 96 h, valproic acid 2 mM): higher knockdown of c-myc
- knockdown of c-myc, combination with vorinostat ([7]; 96 h, vorinostat 2.5 uM, PNA 8 μM): higher knockdown of c-myc
- BCL-2 levels, combination with romidepsin in comparison to only romidepsin ([7]; day 4): reduced levels
- decrease in C-Myc levels, combination with romidepsin compared with only romidepsin ([7]; day 4, PNA 8 uM, romidepsin 10 nM): > 90%
- decrease in the levels of C-Myc [5]: > 50%
- levels of downstream targets BCL2 and EZH2 [5]: downregulation of BCL2 and EZH2
